Data on 3 molecules can be found in patent US9464255B2, “Maleinized ester derivatives” (Elevance Renewable Sciences, Inc., priority 2013, dated 2016).

The test system of data set [1] is microbial populations in the inoculum (activated sludge). Kind of data set: Bacterial plate counts of reaction flask solutions at Day 28. Format: cell-based. The conditions noted are these: study termination. As to the method:
Bacterial plate counts are performed on the prepared activated sludge prior to initiation and each replicate reaction flask solution at Day 28. A dilution series of each sample is prepared in sterile, pH 7.2, phosphate-buffered water at 10^−2, 10^−3, 10^−4, 10^−5, and 10^−6. Duplicate 1-mL aliquots of each dilution are directly analyzed by plate counting methods patterned after methods described in Standard Methods for the Examination of Water and Wastewater. (See, American Public Health Association (APHA), American Water Works Association (AWWA), and Water Environment Federation (WEF). 1998. Standard Methods for the Examination of Water and Wastewater, 20th Edition, Part 9215 B, Pour Plate Method). The bacterial growth medium is Plate Count Agar (Difco Laboratories). The plates of inocula are incubated at 26±2° C. for five to six days before counting the number of colonies on plates with fewer than 300 colonies. The number of colonies at the dilution coming closest to 300 colonies is used to calculate colony forming units (CFU)/mL for each sample.

Data set [2] is described as follows: Solubility in water (observation in the biodegradation test). Format: physicochemical. The text has this:
At study initiation, DOC concentration in the test substance replicates is not detected. […] The increase in DOC concentration from Day 0 to Day 28 is likely due to the insolubility of the test substance in water (that is, more test substance likely went into solution while stirring over time). Consequently, DOC removal cannot be calculated for the test substance.

Data set [3] concerns activated sludge (microbial inoculum). Kind of data set: Aerobic biodegradability in water containing mineral salts and activated sludge (CO2 evolution, DOC). The conditions noted are these: toxicity control >25% ThCO2 by day 6. The procedure: A maleinized ester derivative in the form of hydrogenated 1-pentyl triester of maleinated-9-dodecene methyl ester (hereinafter the “test substance”) is evaluated for aerobic biodegradability in water containing mineral salts and activated sludge. The activated sludge is taken from a wastewater treatment plant and is used as a source of microbial inoculum. The objectives of the study are: 1) to evaluate the biodegradability (mineralization to CO2 production) potential of the test substance in an aerobic, aqueous medium; and 2) to determine the mineralization potential of a reference chemical in order to assess the viability of the test inoculum.
Approximately one liter of activated sludge is used as the microbial inoculum. The sludge is collected from the Columbia Wastewater Plant in Columbia, Miss. This plant treats predominately domestic sewage.
An aqueous mineral salts medium provides essential mineral nutrients and trace elements necessary to sustain the inoculum throughout the test period. The mineral salts medium is prepared by addition of reagent grade salts to reagent water. […]
The CO2-free air is introduced into each flask by positive pressure, and the flow rates (50-100 mL/minute) are measured and adjusted using flow meters. […] Temperature of the chamber is continuously measured using a Rees Scientific temperature monitoring system. […]

Data set [4] in a line: Viscosity index (ASTM D2270). Format: physicochemical. The text has this:
The functional base oil may have a viscosity index (ASTM D2270) in the range from about 120 to about 250, or from about 130 to about 170.

The nature of a further data set: Kinematic viscosity (KV). It counts as physicochemical. As to the method: The maleinated ester derivatives may be biodegradable and may be used as functional base oils. The functional base oil may have a kinetic viscosity (ASTM D-445) in the range from about 2 to about 1000 cSt at 100° C., or from about 2 to about 500, or from about 2 to about 100, or from about 4 to about 10 cSt. The base oil may have a viscosity up to about 35 cSt at 100° C., or in the range from about 3 to about 35 cSt, or in the range from about 5 to about 35 cSt at 100° C.

In the case of “hydrogenated 1-pentyl triester of maleinated-9-dodecene methyl ester [test substance]”, in data set [1], the “effect on the population of microbes” value is “no significant effect on the population of microbes”. In addition, the bacterial plate count is 2.4×10^4 CFU/mL in data set [1] (replicate A) and 3.7×10^4 CFU/mL in data set [1] (replicate B). In data set [2], the solubility in water entry was “insoluble in water”. For the same molecule, the “inhibition of the inoculum (toxicity control)” value is on record as “not be inhibitory” in data set [3] and “not inhibitory” in data set [3] (listed as triester).
As for `CCCCCOC(=O)CCCCCC/C=C/C(CC)C(CC(=O)OCCCCC)C(=O)OCCCCC` (centres unmarked) [Example 1, Tri-pentanol ester of the maleinized methyl 9-dodecenoate], the “viscosity index (VI)” value in data set [4] came out at 128. In addition, in data set [4] (Table 1, ASTM D2270), the “Viscosity Index” value came out at 128. The “KV (40° C.)” value in the data set “Kinematic viscosity (KV)” (40° C.) stood at 24.73 cSt. Further, the “KV (100° C.)” value in the data set “Kinematic viscosity (KV)” (100° C.) is 5.0 cSt.
For `O=C([O-])c1ccccc1.[Na+]` [reference substance, sodium benzoate, reference compound], the bacterial plate count in data set [1] (single system) is on record as 1.4×10^4 CFU/mL.
